From ChEMBL document CHEMBL5325461, “Effect of a new squalene synthase inhibitor on an ApoE-/- mouse model of atherosclerosis” (Bioorg Med Chem, 2023)
The source made the active and inactive calls. The calls are words filed in the database; no cut-off is given here.

Experiments:
[1] = Hepatotoxicity in atherogenic western diet fed ApoE-/- C57BL/6 mouse model assessed as effect on GGT level at 56 umol/kg, ip administered twice daily for 3.5 months; format: toxicity, organism-based; conditions: in vivo, 2555 h, dose 56 µmol/kg
Mus musculus [2] = experiment: Antioxidant activity in atherogenic western diet fed ApoE-/- C57BL/6 mouse model assessed as decrease in MDA level at 56 umol/kg, ip administered twice daily for 3.5 months relative to control; format: functional; set-up: scale not given: the % may be the effect or the level left; conditions: dose 56 µmol/kg, 2555 h
Mus musculus [3] = experiment: Antihypercholesterolemic activity in atherogenic western diet fed SKH2 mouse model assessed as decrease in LDL level at 56 umol/kg, ip administered twice daily for 3.5 months relative to control; format: functional; set-up: scale not given: the % may be the effect or the level left; conditions: dose 56 µmol/kg, 2555 h
Mus musculus [4] = experiment: Antihyperglycemic activity in atherogenic western diet fed ApoE-/- C57BL/6 mouse model assessed as decrease in glucose level at 56 umol/kg, ip administered twice daily for 3.5 months by glucometer analysis relative to control; format: functional; set-up: scale not given: the % may be the effect or the level left; conditions: dose 56 µmol/kg, 2555 h
Mus musculus [5] = experiment: Antiatherosclerotic activity in atherogenic western diet fed ApoE-/- C57BL/6 mouse model assessed as reduction in atheromatic spots in aortic arch at 56 umol/kg, ip administered twice daily for 3.5 months by H&E staining based analysis; format: functional, organism-based; conditions: dose 56.0 µmol/kg
Mus musculus [6] = experiment: Antiatherosclerotic activity in atherogenic western diet fed ApoE-/- C57BL/6 mouse model assessed as reduction in fat deposition in ascending aorta at 56 umol/kg, ip administered twice daily for 3.5 months by H&E staining based analysis; format: functional, organism-based; conditions: dose 56.0 µmol/kg
Mus musculus [7] = experiment: Antiatherosclerotic activity in atherogenic western diet fed ApoE-/- C57BL/6 mouse model assessed as reduction in lesion area in ascending aorta at 56 umol/kg, ip administered twice daily for 3.5 months by H&E staining based analysis; format: functional, organism-based; conditions: dose 56.0 µmol/kg
[8] = Toxicity in western diet fed ApoE-/- C57BL/6 mouse model assessed as weight change at 56 umol/kg, ip administered twice daily for 3.5 months; format: organism-based; conditions: in vivo, 2555 h, dose 56 µmol/kg
Mus musculus [9] = experiment: Antihypercholesterolemic activity in atherogenic western diet fed SKH2 mouse model assessed as decrease in total cholesterol level at 56 umol/kg, ip administered twice daily for 3.5 months relative to control; format: functional; set-up: scale not given: the % may be the effect or the level left; conditions: dose 56 µmol/kg, 2555 h
Mus musculus [10] = experiment: Antiatherosclerotic activity in atherogenic western diet fed ApoE-/- C57BL/6 mouse model assessed as decrease in total cholesterol level in plasma at 56 umol/kg, ip administered twice daily for 3.5 months relative to control; format: functional; set-up: scale not given: the % may be the effect or the level left; conditions: dose 56 µmol/kg, 2555 h
Mus musculus [11] = experiment: Antiatherosclerotic activity in atherogenic western diet fed ApoE-/- C57BL/6 mouse model assessed as reduction in atheromatic lesions in aortic arch at 56 umol/kg, ip administered twice daily for 3.5 months by H&E staining based analysis; format: functional, organism-based; conditions: dose 56.0 µmol/kg
Mus musculus [12] = experiment: Antiatherosclerotic activity in atherogenic western diet fed ApoE-/- C57BL/6 mouse model assessed as reduction in atherosclerosis severity in ascending aorta at 56 umol/kg, ip administered twice daily for 3.5 months by H&E staining based analysis; format: functional, organism-based; conditions: dose 56.0 µmol/kg
Mus musculus [13] = experiment: Antiatherosclerotic activity in atherogenic western diet fed ApoE-/- C57BL/6 mouse model assessed as reduction in atheromatic spots in aortic sinus at 56 umol/kg, ip administered twice daily for 3.5 months by H&E staining based analysis; format: functional, organism-based; conditions: dose 56.0 µmol/kg
Mus musculus [14] = experiment: Antihypercholesterolemic activity in atherogenic western diet fed SKH2 mouse model assessed as increase in HDL level at 56 umol/kg, ip administered twice daily for 3.5 months relative to control; format: functional; conditions: dose 56 µmol/kg, 2555 h
[15] = Hepatotoxicity in atherogenic western diet fed ApoE-/- C57BL/6 mouse model assessed as degeneration at 56 umol/kg, ip administered twice daily for 3.5 months; format: toxicity, organism-based; conditions: in vivo, 2555 h, dose 56 µmol/kg
Mus musculus [16] = experiment: Antiatherosclerotic activity in atherogenic western diet fed ApoE-/- C57BL/6 mouse model assessed as decrease in LDL level in plasma at 56 umol/kg, ip administered twice daily for 3.5 months; format: functional, organism-based; conditions: dose 56.0 µmol/kg
Mus musculus [17] = experiment: Antiatherosclerotic activity in atherogenic western diet fed ApoE-/- C57BL/6 mouse model assessed as reduction in perimeter of ascending aorta covered by atheromatic spots/lesions at 56 umol/kg, ip administered twice daily for 3.5 months relative to control; format: functional; set-up: scale not given: the % may be the effect or the level left; conditions: dose 56 µmol/kg, 2555 h
Mus musculus [18] = experiment: Antiatherosclerotic activity in atherogenic western diet fed ApoE-/- C57BL/6 mouse model assessed as effect on HDL/LDL index in plasma at 56 umol/kg, ip administered twice daily for 3.5 months; format: functional, organism-based; conditions: dose 56.0 µmol/kg
Mus musculus [19] = experiment: Antiatherosclerotic activity in atherogenic western diet fed ApoE-/- C57BL/6 mouse model assessed as reduction in atheromatic lesions in aortic sinus at 56 umol/kg, ip administered twice daily for 3.5 months by H&E staining based analysis; format: functional, organism-based; conditions: dose 56.0 µmol/kg
Mus musculus [20] = experiment: Antiatherosclerotic activity in atherogenic western diet fed ApoE-/- C57BL/6 mouse model assessed as reduction in area of ascending aorta covered by atheromatic spots/lesions at 56 umol/kg, ip administered twice daily for 3.5 months relative to control; format: functional; set-up: scale not given: the % may be the effect or the level left; conditions: dose 56 µmol/kg, 2555 h
[21] = Hepatotoxicity in atherogenic western diet fed ApoE-/- C57BL/6 mouse model assessed as increase in SGPT level at 56 umol/kg, ip administered twice daily for 3.5 months; format: toxicity, organism-based; conditions: in vivo, 2555 h, dose 56 µmol/kg
Mus musculus [22] = experiment: Antiatherosclerotic activity in atherogenic western diet fed ApoE-/- C57BL/6 mouse model assessed as decrease in total cholesterol level in plasma at 56 umol/kg, ip administered twice daily for 3.5 months; format: functional, organism-based; conditions: dose 56.0 µmol/kg
[23] = Hepatotoxicity in atherogenic western diet fed ApoE-/- C57BL/6 mouse model assessed as edema at 56 umol/kg, ip administered twice daily for 3.5 months; format: toxicity, organism-based; conditions: in vivo, 2555 h, dose 56 µmol/kg
[24] = Hepatotoxicity in atherogenic western diet fed ApoE-/- C57BL/6 mouse model assessed as effect on ALP level at 56 umol/kg, ip administered twice daily for 3.5 months; format: toxicity, organism-based; conditions: in vivo, 2555 h, dose 56 µmol/kg
[25] = Hepatotoxicity in atherogenic western diet fed ApoE-/- C57BL/6 mouse model assessed as increase in SGOT level at 56 umol/kg, ip administered twice daily for 3.5 months; format: toxicity, organism-based; conditions: in vivo, 2555 h, dose 56 µmol/kg
Mus musculus [26] = experiment: Antiatherosclerotic activity in atherogenic western diet fed ApoE-/- C57BL/6 mouse model assessed as decrease in LDL level in plasma at 56 umol/kg, ip administered twice daily for 3.5 months relative to control; format: functional; set-up: scale not given: the % may be the effect or the level left; conditions: dose 56 µmol/kg, 2555 h

## Br.CN1CCOC(O)(c2ccc3c(c2)Sc2ccccc2N3)C1 (stereo unspecified)
[1]
  Activity: Non-Toxic
Mus musculus [2]
  Activity: 41%
Mus musculus [3]
  Activity: 76%
Mus musculus [4]
  Activity: 19%
Mus musculus [5]
  Activity: Active
Mus musculus [6]
  Activity: Active
Mus musculus [7]
  Activity: Active
[8]
  Activity: Non-Toxic
Mus musculus [9]
  Activity: 53%
Mus musculus [10]
  Activity: 20%
Mus musculus [11]
  Activity: Active
Mus musculus [12]
  Activity: Active
Mus musculus [13]
  Activity: Active
Mus musculus [14]
  Activity: >100%
[15]
  Activity: Non-Toxic
Mus musculus [16]
  Activity: Active
Mus musculus [17]
  Activity: 70%
Mus musculus [18]
  Activity: Active
Mus musculus [19]
  Activity: Active
Mus musculus [20]
  Activity: 55%
[21]
  Activity: Non-Toxic
Mus musculus [22]
  Activity: Active
[23]
  Activity: Non-Toxic
[24]
  Activity: Non-Toxic
[25]
  Activity: Non-Toxic
Mus musculus [26]
  Activity: 20%
